Source: PubChem BioAssay AID248 (DTP/NCI, 2004)
Values joined by “and” are separate entries in the source; they are usually repeats but may differ in a detail not shown here. Identical values can stand only once. Toxic doses and inconclusive results are not listed.

Test system: L1210 leukemia ip in BDF1 mice, survival T/C
Assay: NCI In Vivo Anticancer Drug Screen. Data for tumor model L1210 Leukemia (intraperitoneal) in B6D2F1 (BDF1) mice
Details: endpoint: mean survival time, higher = longer survival
Summary of the method: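 Value reflects the ratio of survival in compound-treated mice to survival in vehicle-treated controls, with both groups carrying the same transplanted tumor.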

[1] = dose: 100.0 mg/kg/injection, schedule: Q04DX003 (ip), vehicle: saline with Tween-80
[2] = dose: 200.0 mg/kg/injection, schedule: Q04DX003 (ip), vehicle: saline with Tween-80
[3] = dose: 400.0 mg/kg/injection, schedule: Q04DX003 (ip), vehicle: saline with Tween-80
[4] = dose: 100.0 mg/kg/injection, schedule: Q01DX009 (ip), vehicle: Klucel (hydroxypropylcellulose) (HPC)
[5] = dose: 200.0 mg/kg/injection, schedule: Q01DX009 (ip), vehicle: Klucel (hydroxypropylcellulose) (HPC)
[6] = dose: 400.0 mg/kg/injection, schedule: Q01DX009 (ip), vehicle: Klucel (hydroxypropylcellulose) (HPC)
[7] = dose: 12.5 mg/kg/injection, schedule: Q04DX003 (ip), vehicle: Klucel (hydroxypropylcellulose) (HPC)
[8] = dose: 25.0 mg/kg/injection, schedule: Q04DX003 (ip), vehicle: Klucel (hydroxypropylcellulose) (HPC)
[9] = dose: 50.0 mg/kg/injection, schedule: Q04DX003 (ip), vehicle: Klucel (hydroxypropylcellulose) (HPC)
[10] = dose: 100.0 mg/kg/injection, schedule: Q01DX001 (ip), vehicle: saline
[11] = dose: 200.0 mg/kg/injection, schedule: Q01DX001 (ip), vehicle: saline
[12] = dose: 400.0 mg/kg/injection, schedule: Q01DX001 (ip), vehicle: saline
[13] = dose: 100.0 mg/kg/injection, schedule: Q01DX009 (ip), vehicle: saline
[14] = dose: 100.0 mg/kg/injection, schedule: Q04DX003 (ip), vehicle: saline
[15] = dose: 200.0 mg/kg/injection, schedule: Q01DX009 (ip), vehicle: saline
[16] = dose: 200.0 mg/kg/injection, schedule: Q04DX003 (ip), vehicle: saline
[17] = dose: 400.0 mg/kg/injection, schedule: Q04DX003 (ip), vehicle: saline
[18] = dose: 100.0 mg/kg/injection, schedule: Q04DX002 (ip), vehicle: Klucel (hydroxypropylcellulose) (HPC)
[19] = dose: 200.0 mg/kg/injection, schedule: Q04DX002 (ip), vehicle: Klucel (hydroxypropylcellulose) (HPC)
[20] = dose: 400.0 mg/kg/injection, schedule: Q04DX002 (ip), vehicle: Klucel (hydroxypropylcellulose) (HPC)

Question: With `O=C1N(O)C23CCCC(Br)C2ON=C3C12CCCCC2` (stereo unspecified) as the compound, how does the T/C (dose: 100.0 mg/kg/injection, schedule: Q01DX001 (ip), vehicle: saline with Tween-80) read?
Answer: 112 % of control

Question: What about the T/C [1] of the same compound?
Answer: 106 % of control

Question: And the T/C (dose: 200.0 mg/kg/injection, schedule: Q01DX001 (ip), vehicle: saline with Tween-80)?
Answer: 112 % of control

Question: What about the T/C [2] of the same compound?
Answer: 98 % of control

Question: And the T/C (dose: 400.0 mg/kg/injection, schedule: Q01DX001 (ip), vehicle: saline with Tween-80)?
Answer: 104 % of control

Question: And the T/C [3]?
Answer: 95 % of control

Question: Which T/C [4] does the source give for `Brc1cc(Br)c(/C=C/c2c(Br)cc(Br)cc2Br)c(Br)c1` here?
Answer: 104 % of control

Question: What about the T/C [5] of the same compound?
Answer: 102 % of control

Question: What about the T/C [6] of the same compound?
Answer: 105 % of control

Question: With `C1CCC(C2CCCC(C3CCCC[N-]3)[N-]2)[N-]C1.[Cl][Pt]` (stereo unspecified) as the compound, how does the T/C (dose: 12.5 mg/kg/injection, schedule: Q01DX009 (ip), vehicle: saline) read?
Answer: 102 % of control

Question: And the T/C (dose: 25.0 mg/kg/injection, schedule: Q01DX009 (ip), vehicle: saline)?
Answer: 98 % of control

Question: And the T/C (dose: 50.0 mg/kg/injection, schedule: Q01DX009 (ip), vehicle: saline)?
Answer: 104 % of control and 106 % of control

Question: `N#C/C(=C\C=C\c1ccccc1)C(=O)O` was tested. Which T/C [7] did it give?
Answer: 96 % of control

Question: What about the T/C [8] of the same compound?
Answer: 107 % of control

Question: And the T/C [9]?
Answer: 96 % of control

Question: What about the T/C (dose: 100.0 mg/kg/injection, schedule: Q04DX003 (ip), vehicle: Klucel (hydroxypropylcellulose) (HPC)) of the same compound?
Answer: 94 % of control

Question: Which T/C (dose: 100.0 mg/kg/injection, schedule: Q01DX005 (ip), vehicle: saline) does the source give for `Nc1ccn(C2OC(CO)C(O)C2O)c(=NC(CO)C(=O)O)n1` (stereo unspecified) here?
Answer: 117 % of control

Question: What about the T/C (dose: 200.0 mg/kg/injection, schedule: Q01DX005 (ip), vehicle: saline) of the same compound?
Answer: 120 % of control

Question: Which results are given for `CC(/C=C/c1ccccc1)=N\NC(=O)NN`?
Answer: T/C [10]: 91 % of control; T/C [11]: 89 % of control; T/C [12]: 89 % of control

Question: `CC(=O)c1c(O)cc(O)cc1-c1cc(=O)c2c(O)ccc(C(C)=O)c2o1` was tested. Which T/C (dose: 100.0 mg/kg/injection, schedule: Q01DX001 (ip), vehicle: carboxymethylcellulose (CMC)) did it give?
Answer: 103 % of control

Question: What about the T/C (dose: 200.0 mg/kg/injection, schedule: Q01DX001 (ip), vehicle: carboxymethylcellulose (CMC)) of the same compound?
Answer: 94 % of control

Question: What does the source list for `CC1NC(=S)NC(=O)C1CCSC(=N)N` (stereo unspecified)?
Answer: T/C [10]: 104 % of control; T/C [11]: 98 % of control

Question: Which results are given for `COC(=O)c1cc(N)ccc1Br`?
Answer: T/C (dose: 100.0 mg/kg/injection, schedule: Q04DX003 (sc), vehicle: olive oil, sesame oil, peanut oil): 93 % of control; T/C (dose: 200.0 mg/kg/injection, schedule: Q04DX003 (sc), vehicle: olive oil, sesame oil, peanut oil): 111 % of control; T/C (dose: 400.0 mg/kg/injection, schedule: Q04DX003 (sc), vehicle: olive oil, sesame oil, peanut oil): 95 % of control

Question: How did the T/C [13] turn out when `CNC(=O)C(C)C1C(=O)/C(=C(O)/C=C/C(C)=C\C(C)C2OC3(C)OC(C=CC34CO4)C2C)C(=O)N1C1CCC(O)C(C)O1` (stereo unspecified) was run?
Answer: 111 % of control

Question: What about the T/C [14] of the same compound?
Answer: 97 % of control

Question: And the T/C [15]?
Answer: 101 % of control

Question: What about the T/C [16] of the same compound?
Answer: 105 % of control

Question: What about the T/C [17] of the same compound?
Answer: 107 % of control

Question: `CCCCCCCCOC(=O)c1[nH]cnc1/N=N/N(C)CCCC` was tested. Which T/C (dose: 100.0 mg/kg/injection, schedule: Q01DX001 (ip), vehicle: other) did it give?
Answer: 107 % of control

Question: What about the T/C (dose: 200.0 mg/kg/injection, schedule: Q01DX001 (ip), vehicle: other) of the same compound?
Answer: 107 % of control

Question: And the T/C (dose: 400.0 mg/kg/injection, schedule: Q01DX001 (ip), vehicle: other)?
Answer: 102 % of control

Question: How did the T/C [1] turn out when `Cc1cc(CC(O)(C(F)(F)F)C(F)(F)F)c(C#N)c(=O)[nH]1` was run?
Answer: 97 % of control

Question: What about the T/C [2] of the same compound?
Answer: 97 % of control

Question: And the T/C [3]?
Answer: 97 % of control

Question: Which results are given for `CC(CN1CC(=O)NC(=O)C1)N1CC(=O)NC(=O)C1.[Cl][Pt][Cl]` (stereo unspecified)?
Answer: T/C (dose: 12.5 mg/kg/injection, schedule: Q04DX003 (ip), vehicle: water): 106 % of control; T/C (dose: 25.0 mg/kg/injection, schedule: Q04DX003 (ip), vehicle: water): 97 % of control; T/C (dose: 50.0 mg/kg/injection, schedule: Q04DX003 (ip), vehicle: water): 109 % of control; T/C (dose: 100.0 mg/kg/injection, schedule: Q01DX009 (ip), vehicle: water): 108 % of control; T/C (dose: 100.0 mg/kg/injection, schedule: Q04DX003 (ip), vehicle: water): 106 % of control and 107 % of control; T/C (dose: 200.0 mg/kg/injection, schedule: Q01DX009 (ip), vehicle: water): 121 % of control; T/C (dose: 200.0 mg/kg/injection, schedule: Q04DX003 (ip), vehicle: water): 101 % of control; T/C (dose: 400.0 mg/kg/injection, schedule: Q01DX009 (ip), vehicle: water): 160 % of control; T/C (dose: 400.0 mg/kg/injection, schedule: Q04DX003 (ip), vehicle: water): 118 % of control

Question: With `CC(C)(C)Cc1cc(O)c2c(c1O)C(=O)c1ccccc1C2=O` as the compound, how does the T/C (dose: 100.0 mg/kg/injection, schedule: Q01DX009 (ip), vehicle: saline with Tween-80) read?
Answer: 98 % of control

Question: What about the T/C [1] of the same compound?
Answer: 97 % of control

Question: What about the T/C (dose: 200.0 mg/kg/injection, schedule: Q01DX009 (ip), vehicle: saline with Tween-80) of the same compound?
Answer: 98 % of control

Question: What about the T/C [2] of the same compound?
Answer: 97 % of control

Question: What about the T/C (dose: 400.0 mg/kg/injection, schedule: Q01DX009 (ip), vehicle: saline with Tween-80) of the same compound?
Answer: 96 % of control

Question: What about the T/C [3] of the same compound?
Answer: 92 % of control

Question: With `COc1ccc(NC2=CC(=O)C(=O)c3ccccc32)nn1` as the compound, how does the T/C [10] read?
Answer: 91 % of control

Question: What about the T/C [11] of the same compound?
Answer: 89 % of control

Question: What about the T/C [12] of the same compound?
Answer: 95 % of control

Question: How did the T/C (dose: 100.0 mg/kg/injection, schedule: Q04DX002 (ip), vehicle: saline) turn out when `CCOCCOCCOC(C)Oc1ccc(Br)cc1` (stereo unspecified) was run?
Answer: 103 % of control

Question: And the T/C (dose: 200.0 mg/kg/injection, schedule: Q04DX002 (ip), vehicle: saline)?
Answer: 103 % of control

Question: What about the T/C (dose: 400.0 mg/kg/injection, schedule: Q04DX002 (ip), vehicle: saline) of the same compound?
Answer: 100 % of control

Question: For `Fc1ccc(C(Cl)Cl)cc1`, which T/C [13] is on record?
Answer: 102 % of control

Question: And the T/C [14]?
Answer: 97 % of control and 86 % of control

Question: What about the T/C [15] of the same compound?
Answer: 99 % of control

Question: And the T/C [16]?
Answer: 101 % of control

Question: What about the T/C [17] of the same compound?
Answer: 101 % of control and 89 % of control

Question: Which T/C (dose: 12.5 mg/kg/injection, schedule: Q01DX009 (ip), vehicle: Klucel (hydroxypropylcellulose) (HPC)) does the source give for `C[P+](Cc1ccc([N+](=O)[O-])cc1)(c1ccccc1)c1ccccc1` here?
Answer: 99 % of control

Question: What about the T/C [7] of the same compound?
Answer: 100 % of control

Question: And the T/C (dose: 25.0 mg/kg/injection, schedule: Q01DX009 (ip), vehicle: Klucel (hydroxypropylcellulose) (HPC))?
Answer: 90 % of control

Question: What about the T/C [8] of the same compound?
Answer: 86 % of control

Question: What about the T/C [9] of the same compound?
Answer: 96 % of control

Question: With `COC(=O)c1nnn(S(=O)(=O)c2ccc(C)cc2)c1C(=O)OC` as the compound, how does the T/C [18] read?
Answer: 91 % of control

Question: And the T/C [19]?
Answer: 95 % of control

Question: What about the T/C [20] of the same compound?
Answer: 91 % of control

Question: Which T/C [18] does the source give for `O=S(=O)(/C=C\c1ccccc1)CBr` here?
Answer: 100 % of control

Question: And the T/C [19]?
Answer: 97 % of control

Question: What about the T/C [20] of the same compound?
Answer: 106 % of control

Question: Which results are given for `CSc1ccc2c(c1)-c1ccccc1C2=O`?
Answer: T/C (dose: 100.0 mg/kg/injection, schedule: Q04DX003 (ip), vehicle: acetone): 94 % of control; T/C (dose: 200.0 mg/kg/injection, schedule: Q04DX003 (ip), vehicle: acetone): 89 % of control; T/C (dose: 400.0 mg/kg/injection, schedule: Q04DX003 (ip), vehicle: acetone): 93 % of control

Question: With `FC(Cl)C(F)(F)Br` (stereo unspecified) as the compound, how does the T/C (dose: 75.0 mg/kg/injection, schedule: Q01DX005 (ip), vehicle: saline) read?
Answer: 95 % of control

Question: What about the T/C (dose: 150.0 mg/kg/injection, schedule: Q01DX005 (ip), vehicle: saline) of the same compound?
Answer: 101 % of control

Question: And the T/C (dose: 300.0 mg/kg/injection, schedule: Q01DX005 (ip), vehicle: saline)?
Answer: 98 % of control

Question: What about the T/C (dose: 600.0 mg/kg/injection, schedule: Q01DX001 (ip), vehicle: acetone) of the same compound?
Answer: 101 % of control

Question: Which results are given for `CNC(=O)Nc1cccc(C(=O)O)c1`?
Answer: T/C [4]: 98 % of control; T/C [5]: 103 % of control; T/C [6]: 92 % of control
